Source: patent US7592308B2, “F3W variants of the lantibiotic mersacidin and its use” (priority 2004, dated 2009)
In brackets after ≈: the same amount, converted by molar mass. Entries after “also recorded” stand apart in the source; their conditions may differ. Read-outs that look alike come from different tables or passages of the source. Square brackets hold non-standard residues; d marks the D form. Ends that are not written are not given here. Dhb = C/C=C(\N)C(=O)O; Dha = C=C(N)C(=O)O

Tests used:
M. luteus 4698 = format: cell-based, Micrococcus luteus
Method: (§1) A selection of the variants produced in Example 1 above were tested further for activity against a range of bacteria. Minimum inhibitory concentrations (MICs) for all organisms with the exception of Streptococcus pneumoniae were determined by two-fold serial antibiotic dilutions in Mueller-Hinton broth (MHB) supplemented with 50 μg/ml calcium as calcium chloride dihydrate. Minimum inhibitory concentrations (MICs) for S. pneumoniae were determined by two-fold serial antibiotic dilutions in Brain Heart Infusion (BHI) broth supplemented with 50 μg/ml calcium as calcium chloride dihydrate. Antimicrobial agent stock solutions were prepared and stored according to NCCLS standard M7-A6.
(§2) Actively growing broth cultures were diluted to contain […] by adjusting to an absorbance of 0.2-0.3 at 600 nm, equivalent to the McFarland 0.5 standard. They were then diluted a further 1:100 in broth. The assays were performed in duplicate in sterile 96-well microtitre plates in a total volume of 200 μl (160 μl broth, 20 μl antibiotic, 20 μl inoculum) in a concentration range from 64 μg/ml to 0.06 μg/ml. The 12th well of the microtitre plate contained no antimicrobial agent. Vancomycin was used as a reference antibiotic for quality control. Plates were incubated aerobically, shaking, for 18-20 hours at 37° C. with the MIC defined as the lowest concentration of drug that produced no visible growth.

S. aureus SG511 = format: cell-based, Staphylococcus aureus
Method: (§3) MIC tests were performed with some of the variants of Example 2 on a range of other organisms. The results are shown in Tables 9 and 10 (figures in μg/ml): […]

S. aureus CS = format: cell-based, Staphylococcus aureus
Method: as §3

S. aureus 1012-13 MRSA = format: cell-based, Staphylococcus aureus
Method: as §3

S. aureus COL MRSA = format: cell-based, Staphylococcus aureus
Method: as §3

E. faecium 4147-1 = format: cell-based, Enterococcus faecium
Method: as §3

E. faecium 4147 VRE = format: cell-based, Enterococcus faecium
Method: as §3

S. pyogenes 16205 = format: cell-based, Streptococcus pyogenes
Method: as §3

S. pyogenes 13608 = format: cell-based, Streptococcus pyogenes
Method: as §3

E. faecalis 29212 = assay: MIC, two-fold serial dilution in broth; format: cell-based, Enterococcus faecalis; details: duplicate
Method: as §1, §2

E. faecium 7131121 = assay: MIC, two-fold serial dilution in broth; format: cell-based, Enterococcus faecium; details: duplicate
Method: as §1, §2

E. faecium 19579 = assay: MIC, two-fold serial dilution in broth; format: cell-based, Enterococcus faecium; details: duplicate
Method: as §1, §2

S. aureus SH1000 = format: cell-based, Staphylococcus aureus
Method: as §1, §2

S. pneumoniae R6 = format: cell-based, Streptococcus pneumoniae; details: Table 8B; BHI broth + 50 μg/ml calcium; duplicate
Method: as §1, §2

S. aureus R33 = format: cell-based, Staphylococcus aureus; details: Table 8A; MHB + 50 μg/ml calcium; duplicate
Method: as §1, §2

M. luteus = details: data of Szekat et al., cited from earlier work; for fold greater MIC measured against M. luteus: compared with mersacidin
[1] = Table 8A, MHB + 50 μg/ml calcium
[2] = Table 8A, MHB + 50 μg/ml calcium, duplicate
[3] = Table 8B, MHB + 50 μg/ml calcium, duplicate

CC[C@H](C)[C@@H]1NC(=O)[C@@H]2CSC(C)C(NC(=O)[C@@H]3CSC(C)C(NC(=O)[C@H](Cc4ccccc4)NC(=O)C4NC(=O)[C@@H](N)CSC4C)C(=O)N[C@@H](CC(C)C)C(=O)N4CCC[C@H]4C(=O)NCC(=O)NCC(=O)NCC(=O)NCC(=O)N[C@@H](C(C)C)C(=O)N3)C(=O)N[C@@H](CC(C)C)C(=O)NC(C(=O)N[C@@H](Cc3c[nH]cn3)C(=O)N[C@@H](CCC(=O)O)C(=O)N2)C(C)SC=CNC1=O (stereo partly shown) [Dha16H]
MIC M. luteus 4698 (M. luteus 4698; 4698): 4 µg/mL (≈ 2.11 µM)
MIC S. aureus SG511 (S. aureus SG511): 8 µg/mL (≈ 4.22 µM)
MIC S. aureus CS (S. aureus CS): 64 µg/mL (≈ 33.8 µM)
MIC S. aureus 1012-13 MRSA (S. aureus 1012-13 MRSA): 64 µg/mL (≈ 33.8 µM)
MIC S. aureus COL MRSA (S. aureus COL MRSA): 64 µg/mL (≈ 33.8 µM)
MIC E. faecium 4147-1 (E. faecium 4147-1; Table 9, 16 h): 128-16 h, μg/ml
MIC E. faecium 4147-1 (E. faecium 4147-1; Table 9, 23 h): 256-23 h μg/ml
MIC E. faecium 4147 VRE (E. faecium 4147 VRE; 4147 VRE): 128 µg/mL (≈ 67.6 µM)
MIC S. pyogenes 16205 (S. pyogenes 16205): 4 µg/mL (≈ 2.11 µM)
MIC S. pyogenes 13608 (S. pyogenes 13608): 4 µg/mL (≈ 2.11 µM)

C=C1NC(=O)C2NC(=O)[C@H](CC(C)C)NC(=O)C(NC(=O)[C@@H]3CSC(C)C(NC(=O)[C@H](Cc4ccccc4)NC(=O)C4NC(=O)[C@@H](N)CSC4C)C(=O)N[C@@H](CC(C)C)C(=O)N4CCC[C@H]4C(=O)NCC(=O)N[C@@H](Cc4c[nH]cn4)C(=O)NCC(=O)NCC(=O)N[C@@H](C(C)C)C(=O)N3)C(C)SC[C@H](NC(=O)[C@H](CCC(=O)O)NC1=O)C(=O)N[C@@H]([C@@H](C)CC)C(=O)NC=CSC2C (stereo partly shown) [G8H]
MIC E. faecalis 29212 (E. faecalis 29212; Table 11): >64, >64 μg/ml
MIC E. faecium 7131121 (E. faecium 7131121; Table 11): >64, >64 μg/ml
MIC E. faecium 19579 (E. faecium 19579; Table 11): >64, >64 μg/ml
MIC S. aureus SH1000 (S. aureus SH1000; SH1000): 64, >64 μg/ml

C=C1NC(=O)C2NC(=O)[C@H](CC(C)C)NC(=O)C(NC(=O)[C@@H]3CSC(C)C(NC(=O)[C@H](Cc4ccccc4)NC(=O)C4NC(=O)[C@@H](N)CSC4C)C(=O)N[C@@H](CC(C)C)C(=O)N4CCC[C@H]4C(=O)NCC(=O)NCC(=O)N[C@@H](CC(N)=O)C(=O)NCC(=O)N[C@@H](C(C)C)C(=O)N3)C(C)SC[C@H](NC(=O)[C@H](CCC(=O)O)NC1=O)C(=O)N[C@@H]([C@@H](C)CC)C(=O)NC=CSC2C (stereo partly shown) [G9N]
MIC E. faecalis 29212 (E. faecalis 29212; [1]): >64, >64 μg/ml
MIC S. pneumoniae R6 (S. pneumoniae R6): >64, >64 μg/ml
MIC E. faecium 7131121 (E. faecium 7131121; [1]): >64, >64 μg/ml
MIC E. faecium 19579 (E. faecium 19579; [1]): >64, >64 μg/ml
MIC S. aureus SH1000 (S. aureus SH1000; [2]): >64, >64 μg/ml

C=C1NC(=O)C2NC(=O)[C@H](CC(C)C)NC(=O)C(NC(=O)[C@@H]3CSC(C)C(NC(=O)[C@H](Cc4ccccc4)NC(=O)C4NC(=O)[C@@H](N)CSC4C)C(=O)N[C@@H](CC(C)C)C(=O)N4CCC[C@H]4C(=O)NCC(=O)NCC(=O)NCC(=O)N[C@@H](C)C(=O)N[C@@H](C(C)C)C(=O)N3)C(C)SC[C@H](NC(=O)[C@H](CCC(=O)O)NC1=O)C(=O)N[C@@H]([C@@H](C)CC)C(=O)NC=CSC2C (stereo partly shown) [G10A]
MIC E. faecalis 29212 (E. faecalis 29212; [1]): >64, >64 μg/ml
MIC E. faecium 7131121 (E. faecium 7131121; [1]): >64, >64 μg/ml
MIC E. faecium 19579 (E. faecium 19579; [1]): >64, >64 μg/ml
MIC S. aureus R33 (S. aureus R33): >64, >64 μg/ml
MIC S. aureus SH1000 (S. aureus SH1000; [2]): >64, >64 μg/ml

C=C1NC(=O)C2NC(=O)[C@H](CC(C)C)NC(=O)C(NC(=O)[C@@H]3CSC(C)C(NC(=O)[C@H](Cc4ccccc4)NC(=O)C4NC(=O)[C@@H](N)CSC4C)C(=O)N[C@@H](CC(C)C)C(=O)N[C@@H](C)C(=O)NCC(=O)NCC(=O)NCC(=O)NCC(=O)N[C@@H](C(C)C)C(=O)N3)C(C)SC[C@H](NC(=O)[C@H](CCC(=O)O)NC1=O)C(=O)N[C@@H]([C@@H](C)CC)C(=O)NC=CSC2C (stereo partly shown) [P6A]
MIC M. luteus 4698 (M. luteus 4698; 4698): 4 µg/mL (≈ 2.22 µM)
MIC S. aureus SG511 (S. aureus SG511): 8 µg/mL (≈ 4.44 µM)
MIC S. aureus CS (S. aureus CS): 32 µg/mL (≈ 17.8 µM)
MIC S. aureus 1012-13 MRSA (S. aureus 1012-13 MRSA): 32 µg/mL (≈ 17.8 µM)
MIC S. aureus COL MRSA (S. aureus COL MRSA): 64 µg/mL (≈ 35.6 µM)
MIC E. faecium 4147-1 (E. faecium 4147-1; 4147-1): 256 µg/mL (≈ 142 µM)
MIC E. faecium 4147 VRE (E. faecium 4147 VRE; Table 9, 16 h): 128-16 h, μg/ml
MIC E. faecium 4147 VRE (E. faecium 4147 VRE; Table 9, 24 h): 256-24 h μg/ml
MIC S. pyogenes 16205 (S. pyogenes 16205): 8 µg/mL (≈ 4.44 µM)
MIC S. pyogenes 13608 (S. pyogenes 13608): 4 µg/mL (≈ 2.22 µM)

F3L: mersacidin variant produced by Szekat et al. (CTLTLPGGGGVCTLT[Dha]ECIC; thioether (positions not given here); not fully specified; UniProt P43683 49-68, looked up, variant F3L)
MIC against M. luteus (M. luteus): 12.5 µg/mL
antibacterial activity (in words) (M. luteus): weakly active

G7A: mersacidin variant (CTFTLPAGGGVCTLT[Dha]ECIC; thioether (positions not given here); not fully specified; UniProt P43683 49-68, looked up, variant G7A)
MIC E. faecalis 29212 (E. faecalis 29212; [1]): >64, >64 μg/ml
MIC S. pneumoniae R6 (S. pneumoniae R6): >64, >64 μg/ml
MIC E. faecium 7131121 (E. faecium 7131121; [1]): >64, >64 μg/ml
MIC S. aureus SH1000 (S. aureus SH1000; [2]): >64, >64 μg/ml

G7N: mersacidin variant (CTFTLPNGGGVCTLT[Dha]ECIC; thioether (positions not given here); not fully specified; UniProt P43683 49-68, looked up, variant G7N)
MIC M. luteus 4698 (M. luteus 4698; [3]): <4, <4 μg/ml
MIC E. faecalis 29212 (E. faecalis 29212; [1]): >64, >64 μg/ml

G8Q: mersacidin variant (CTFTLPGQGGVCTLT[Dha]ECIC; thioether (positions not given here); not fully specified; UniProt P43683 49-68, looked up, variant G8Q)
MIC E. faecalis 29212 (E. faecalis 29212; [1]): >64, >64 μg/ml
MIC E. faecium 7131121 (E. faecium 7131121; [1]): >64, >64 μg/ml
MIC E. faecium 19579 (E. faecium 19579; [1]): >64, >64 μg/ml
MIC S. aureus SH1000 (S. aureus SH1000; [2]): >64, >64 μg/ml

G10Y: mersacidin variant (CTFTLPGGGYVCTLT[Dha]ECIC; thioether (positions not given here); not fully specified; UniProt P43683 49-68, looked up, variant G10Y)
MIC M. luteus 4698 (M. luteus 4698; [3]): <4, <4 μg/ml
MIC S. pneumoniae R6 (S. pneumoniae R6): <4, <4 μg/ml
MIC S. aureus SH1000 (S. aureus SH1000; [2]): >64, >64 μg/ml

S16I: mersacidin variant produced by Szekat et al. (CTFTLPGGGGVCTLTIECIC; thioether (positions not given here); not fully specified; UniProt P43683 49-68, looked up, variant S16I)
antibacterial activity (in words) (M. luteus): essentially inactive
fold greater MIC measured against M. luteus (M. luteus): about 1,000 fold

mersacidin E17A (CTFTLPGGGGVCTLT[Dha]ACIC; thioether (positions not given here); not fully specified; UniProt P43683 49-68, looked up, variant E17A) [mersacidin variant produced by Szekat et al]
antibacterial activity (in words) (M. luteus): essentially inactive; also recorded: no antibacterial activity
fold greater MIC measured against M. luteus (M. luteus): about 1,000 fold

mersacidin L14I Dha16Dhb (CTFTLPGGGGVCTIT[Dhb]ECIC; thioether (positions not given here); not fully specified; UniProt P43683 49-68, looked up, variant L14I S16T) [mersacidin double variant]
MIC E. faecalis 29212 (E. faecalis 29212; Table 18, double variants): >64, >64 μg/ml
MIC E. faecium 7131121 (E. faecium 7131121; Table 18, double variants): >64, >64 μg/ml
